The results in this text go back to a melting point compilation (Tetko et al.; mined from patent text by program, amines drawn as free bases though some values may be those of a salt).

Bounds are passed on as bounds.

What is called melting point is the temperature of the solid-liquid transition. In turn, `COc1c(C)cc2c(c1C)C[C@@H]1c3cc(C(C)C)ccc3N[C@H]21` (relative stereo) displayed a melting point of 106 °C.
The figure for `O=C(Nc1ccc(C(=O)N2CCc3cn[nH]c3-c3ncccc32)c(Cl)c1)c1ccccc1-c1ccccc1` is 181 to 192 °C; for `CN1CCOc2ccc(S(=O)(=O)n3c(Cc4ccc(C(=O)O)cc4)cc4c(Cl)cccc43)cc21` it is 236 °C.
`Cc1ccc(-c2cc(OCC(=O)N3CCOCC3)c3ccccc3n2)cc1` returned a melting point of 146 °C.
On to `Clc1ccc(CN2CC=C(/C=C/c3ccc4[nH]ccc4c3)CC2)cc1`, for which the melting point worked out at 165 °C.
The figure for `C=C(COc1ccc(C(=O)CCC(=O)O)cc1)COc1ccc(C(C)=O)c(O)c1CCC` is 136 to 137 °C; for `CCCCCCCCCCCC(=O)c1c[nH]c2ccccc12` it is 129 to 130 °C.
Turning to `CCOC(=O)/C=C/c1ccc(OCCc2nc(-c3cccc(C)c3)oc2C)cc1`, the melting point is 90 to 91 °C.
The result for `COc1ccc2c(c1)C(CCNC(=O)C(F)(F)F)C(c1ccccc1)C2` (stereo not given) reads 109 to 111 °C; that for `COc1ccc(-c2[nH]nc3c2C(=O)c2c(NC(=O)NNC(=O)c4ccccc4)cccc2-3)cc1`, more than 300 °C; that for `O=C(N1CCCN(C(=O)C(F)(F)F)CCN(C(=O)C(F)(F)F)CCCN(C(=O)C(F)(F)F)CC1)C(F)(F)F`, 217 to 218 °C.
For `CN1C(C)(C)CC(OC(=O)CCc2cc(-n3nc4ccc(S(=O)(=O)c5ccccc5)cc4n3)c(O)c(C(C)(C)C)c2)CC1(C)C`, the melting point lay within 45 to 52 °C.
The figure for `COc1ccc(Cc2cc3cccc(-c4cccc(C(=O)O)c4)c3o2)cc1OC` is 122 to 123 °C; for `CC1OC2c3cc(F)ccc3N3CCC2(CC3)O1` (stereo not given) it is 103 to 107 °C.
With `O=[N+]([O-])c1cc(Br)c(NS(=O)(=O)c2ccccc2)cc1Br`, the melting point was 148 °C.
The result for `O=C(c1cc(C(F)(F)F)cc(C(F)(F)F)c1)N1CCC2(CC1)C(=O)NCN2c1ccc(Cl)c(Cl)c1` reads 220 to 222 °C; that for `N#Cc1cc(-c2ccoc2)c2ccc(COc3cc(F)cc(-c4cc(F)cc(F)c4)c3)cc2n1`, 189 to 192 °C; that for `CCOC(=O)C(=O)Nc1ccc(C(F)(F)F)cc1C`, 120 to 121 °C.
Compound `O=C(O)c1ccc(C=Cc2ccc(-c3cc4ccccc4o3)cc2)cc1` showed a melting point of 348 to 349 °C.
The result for `O=C(O)c1cc([N+](=O)[O-])cc(Br)n1` reads 172 to 173 °C; that for `CC12CCC3c4ccc(O)cc4C(=O)C(Sc4ccc(Br)cc4)C3C1CCC2O` (stereo not given), 190 to 194 °C; that for `CCCCCCNC(=O)c1cnc(Cl)nc1`, 101 to 102 °C.
The figure for `S=C=Nc1ccc2oc(-c3ccco3)nc2c1` is 135 to 137 °C.
Turning to `CN(c1cc(OC(F)(F)F)cc2cc(C(=O)O)[nH]c12)S(=O)(=O)c1cccs1`, the melting point is 245 to 246 °C.
The result for `O=[N+]([O-])c1cccc(-c2nc(Nc3ccccc3)cc3cccnc23)c1` reads 158 to 160 °C; that for `CNc1nc2ncnn2c(NC2CCCC2)c1-c1ccccc1`, 158 to 160 °C.
In turn, `CC(=O)Nc1ccc2c(c1)CCN2NC(C)=O` showed a melting point of 217 to 218 °C.
Compound `CCOC(=O)C(Cc1ccc(OCCN2CCC(C)(C)c3cc(C(=O)c4ccccc4)ccc32)cc1)Nc1ccccc1C(=O)c1ccccc1` (stereo not given) showed a melting point of 75 to 77 °C.
Regarding `COc1ccc2oc(Cc3cccnc3)c(CC#N)c2c1`, the melting point turned out to be 123 °C.
The compound `N#Cc1ccc2c(c1)C(=O)C1(CC1)O2` returned a melting point of 148 to 149 °C.
In turn, `O=S(=O)(Nc1ccc(Cl)nc1I)c1ccccc1` returned a melting point of 132 °C.
As for `CCOC(=O)C1=C(C)NC(C)=C(C(=O)OCC)C1c1c(Cl)cccc1Cl`, the melting point lay in the range of 134 to 135 °C.
Consider `Cc1nc(-c2cccc(F)c2)n(-c2ccc(S(N)(=O)=O)cn2)n1`, for which the melting point lay within 195 to 196 °C.
Take `Nc1cccc(-c2ccc(-c3cccc(CN4CC5C(N)C5C4)c3)cc2)n1` (stereo not given): the melting point was 184 to 196 °C.
In turn, `N#Cc1ncn(Cc2ccc(Cl)c(Cl)c2)c1C#N` gave a melting point of 95 to 96 °C.
The result for `CC1(c2nn(-c3c(Cl)cc(C(F)(F)F)cc3Cl)c(N)c2C#N)CC1(Cl)Cl` (stereo not given) reads 209 to 210 °C; that for `CC1(C)COC(Cc2ccc3c(c2)C(=O)c2ccccc2CO3)=N1`, 101 to 104 °C.
The result for `O=[N+]([O-])c1cc2c(c([N+](=O)[O-])c1)NCC2` reads 244 to 245 °C; that for `CCCCCCCCCCOc1cc(OCCCOc2ccc(O)cc2)cc(C(=O)O)c1`, 106 to 109 °C; that for `COC(=O)Cc1nsc(NC(=O)OC)n1`, 167 to 169 °C.
The figure for `CC(=O)OCCn1nc(-c2cc(C(C)(C)C)cc(C(C)(C)C)c2)c2cccnc21` is 115 to 116 °C.
As to `O=C(Cn1c(-c2ccc(Cl)cc2)nc2cccnc21)Nc1ccccn1`, the melting point lay in the range of 190 to 191 °C.
The figure for `Nc1cnn(CCO)c1NCCO` is 140 to 142 °C; for `CC(=O)OC1CSC(Oc2cncc(-c3cncnc3)c2)C(OC(C)=O)C1OC(C)=O` (stereo not given) it is 213 to 217 °C; for `N#Cc1c(N)oc2c1CCCC2` it is 179 °C.
The result for `COC(C)(C)CN1CCC(CNC(=O)c2cc(Cl)c(N)n3cc(C)nc23)CC1` reads 211 °C; that for `CN(C)c1cc2nc(C(C)(C)C)sc2cc1N`, 169 °C; that for `CCCc1c(CSc2nnc(SCc3ccc(OCC(=O)O)cc3)s2)ccc(C(C)=O)c1O`, 131 to 134 °C.
For the compound `O=C(O)Cc1cccc2c(=O)cc(-c3cc(F)ccc3F)oc12`, the melting point fell in the range of 222 to 224 °C.
`CC(C)(C)c1ccc(C(=O)n2c3c(c4ccccc42)CC(C(=O)O)CC3)cc1` (stereo not given) yielded a melting point of 174 to 175 °C.
As to `C=CCn1c(C)c(C)c2cnnc(OCc3cccc(F)c3)c21`, the melting point was 85 to 86 °C.
The figure for `COc1c(N2C[C@H]3C(CF)C[C@@]3(N)C2)c(F)cc2c(=O)c(C(=O)O)cn([C@@H]3C[C@@H]3F)c12` (stereo not given in full) is 122 to 125 °C; for `CN(C)C(=O)C1CCCN(c2cc3ccccc3c(=O)[nH]2)C1` (stereo not given) it is 187 to 188 °C.
Compound `CS(=O)C(c1ccc(Cl)cc1)c1ccc(Cl)cc1` (stereo not given) came in with a melting point of 110 °C.
`Cc1cn(CC(=O)N(CCNC(=O)OC(C)(C)C)CC(=O)Oc2c(F)c(F)c(F)c(F)c2F)c(=O)[nH]c1=O` returned a melting point of 174 to 176 °C.
The figure for `O=C(CCCCCCCCCCCCCCCO)OCOC(=O)CCCCCCCCCCCCCCCO` is 96.2 °C; for `Cn1c(C(F)(F)F)cc(=O)n(-c2cc(N(S(C)(=O)=O)S(C)(=O)=O)c(Cl)cc2F)c1=O` it is 282 to 285 °C; for `CN(C)C(c1cccc(F)c1)C1CCC(C=O)CC1` (stereo not given) it is 40 to 43 °C.
The result for `Nc1c(-c2ccc(NS(=O)(=O)c3ccccc3Cl)cc2F)cnc2c(CO)cnn12` reads 204 to 208 °C; that for `Cc1ccc(S(=O)(=O)N2[C@@H](CCc3nc(C)no3)CC[C@H]2c2ccc(F)cc2)cc1` (racemic), 91 °C; that for `Cc1oc(-c2ccccc2)nc1CCC(=O)c1ccc(CCC2OCCO2)cc1`, 89 to 90 °C.
The result for `CC(=O)Oc1c(C(C)C)cc(NC(=O)Nc2cnc3c(C)cc(C)cc3c2-c2ccccc2Cl)cc1C(C)C` reads 248 to 249 °C; that for `CS(=O)(=O)c1c(C(=O)NN=Cc2ccc3ccccc3c2)[nH]c2ccccc12`, more than 250 °C.
Compound `CCOc1nn(-c2ccc(C(F)(F)F)cn2)cc1CCCOc1ccccc1CCC(=O)O` yielded a melting point of 93 to 94 °C.
The figure for `CNS(=O)(=O)CCc1ccc2[nH]cc(C3CCN(C)CC3)c2c1` is 156 to 158 °C.
Regarding `COc1ccc(C(C)C)cc1-c1cc(-c2nnnn2C2CCN(C(=O)CC(C)C)CC2)c(O)cc1O`, the melting point was in the range of 220 to 224 °C.
The figure for `C=CCN1CC(=O)N2CCC[C@H]2C1=O` is 106 to 109 °C; for `CCC(C)(Oc1ccc(CC(=O)Nc2cc(C)cc(C)c2)cc1)C(=O)O` (stereo not given) it is 131 to 133 °C; for `CC(=NOCCOc1ccc(CC2OC(=O)N(C(c3ccccc3)(c3ccccc3)c3ccccc3)C2=O)cc1)c1ccc(-c2ccccc2)cc1` (stereo not given) it is 193 to 195 °C.
`Cc1cc(C)c(Cc2nc(C)nc(Cl)c2C)c(C)c1` gave a melting point of 82 to 84 °C.
The figure for `Oc1ccc(-c2cc3ccccc3[nH]2)c(O)c1` is 188 °C; for `CC(=O)c1ccc(C(=O)CCl)s1` it is 94 to 95 °C; for `O=c1nc(-c2ccccc2)c2cc([N+](=O)[O-])ccc2n1CC(F)(F)F` it is 195 to 196 °C.
The result for `CCCCC(=O)SCC(Cc1ccccc1)C(=O)Nc1cc(C)cc(C(=O)O)c1` (stereo not given) reads 151 to 153 °C; that for `COc1ccc(NS(=O)(=O)c2cc3cc(Cl)ccc3oc2=O)cc1O`, 225 to 226 °C.
The figure for `CCc1ccc(C(=O)C=CN(C)C)cc1` is 80 to 81 °C; for `O=C(c1ccc(-c2ccn(C(=O)C3CC3)n2)cc1)N1Cc2cccn2Cc2ccccc21` it is 197 to 199 °C.
On to `CCC(=O)N(C)c1cccc(-c2ccc3nnc(N)n3n2)c1`, for which the melting point was in the range of 190 to 191 °C.
For `O=C1[C@H]2CCC[C@H]2N(C(=O)Cn2ccnc2)c2ccccc2N1Cc1ccccc1` (relative stereo), the melting point was in the range of 183 to 184 °C.
The figure for `COC(=O)Cn1c(=O)c(-c2c(Cl)cccc2Cl)cc2cnc(N)nc21` is 188 to 190 °C.
For `Cc1ccc(-n2nc3c(cc2=O)CCCc2sc(C=O)cc2-3)cc1`, the melting point is 127 to 129 °C.
The result for `COn1c(C#N)c(Br)c(Br)c1-c1ccc(Cl)c(Cl)c1` reads 145 to 150 °C; that for `N#Cc1cnn(-c2ccc(Cl)c(Cl)c2Cl)c1NC=O`, 190 to 192 °C.
The result for `CCN(CC)CCn1c(=O)c2cnc3c(cnn3CC)c2n2nc(C)cc12` reads 90 to 92 °C; that for `C(=C\c1nc(COc2ccc(CCCn3ccnc3)cc2)co1)/c1ccccc1`, 127 to 128 °C.
